Assay results published in patent US9510595B2, “Pesticidal mixtures” (Syngenta Participations AG, priority 2012, dated 2016).

Experiments:
[1] = test system: Heliothis virescens (Tobacco Budworm); test: Heliothis virescens egg/larval mortality on artificial diet, 24-well plate; format: in vivo; conditions: for 2-7 Observe control %: 2-7 alone; for SPAT observed control %: SPAT alone; for 1-1 observed control %: 1-1 alone; for DMET observed control %: DMET alone
Protocol: Heliothis virescens (Tobacco Budworm)
Eggs (0-24 h old) are placed in 24-well microtiter plate on artificial diet and treated with test solutions (DMSO) by pipetting. After an incubation period of 4 days, samples are checked for larval mortality.
(§1) When a compound applied alone gave no control at a particular rate, it is assumed that lower rates of that compound alone also give no control. DMET=deltamethrin, SPAT=spirotetramat, 1-1 is compound 1 in Table 1, 2-7 is compound 7 in Table 2.

[2] = test system: Tetranychus urticae (Two-Spotted Spider Mite); test: Tetranychus urticae mixed population mortality on sprayed bean leaf discs; format: in vivo; conditions: for 2-7 observed control %: 2-7 alone; for SPAT observed control %: SPAT alone
From the text: Tetranychus urticae (Two-Spotted Spider Mite)
Bean leaf discs on agar in 24-well microtiter plates are sprayed with test solutions (DMSO). After drying, the leaf discs are infested with mite populations of mixed ages. 8 days later, discs are checked for mixed population mortality.
as §1

Question: For `N#Cc1cc(C2=NCC(c3cc(Cl)c(Cl)c(Cl)c3)(C(F)(F)F)C2)ccc1-n1cncn1` (racemic) [2-7], which “2-7 Observe control %” value ([1]; 0.025 ppm) is on record?
Answer: 0%

Question: What about the “2-7 Observe control %” value ([1]; 0.05 ppm) of the same compound?
Answer: 10%

Question: What about the “2-7 Observe control %” value ([1]; 0.1 ppm) of the same compound?
Answer: 55%

Question: What about the “2-7 Observe control %” value ([1]; 0.2 ppm) of the same compound?
Answer: 80%

Question: And the “2-7 Observe control %” value ([1]; 0.4 ppm)?
Answer: 90%

Question: What about the “2-7 observed control %” value ([2]; 0.187 ppm) of the same compound?
Answer: 0%

Question: What about the “2-7 observed control %” value ([2]; 0.375 ppm) of the same compound?
Answer: 0%

Question: And the “2-7 observed control %” value ([2]; 0.75 ppm)?
Answer: 25%

Question: And the “2-7 observed control %” value ([2]; 1.5 ppm)?
Answer: 75%

Question: What about the “2-7 observed control %” value ([2]; 3.0 ppm) of the same compound?
Answer: 80%

Question: How did the “SPAT observed control %” value ([1]; 1.56 ppm) turn out when `CCOC(=O)OC1=C(c2cc(C)ccc2C)C(=O)N[C@]12CC[C@@H](OC)CC2` [SPAT, spirotetramat] was run?
Answer: 0%

Question: And the “SPAT observed control %” value ([1]; 3.12 ppm)?
Answer: 0%

Question: And the “SPAT observed control %” value ([1]; 3.125 ppm)?
Answer: 0%

Question: And the “SPAT observed control %” value ([1]; 6.25 ppm)?
Answer: 0%

Question: And the “SPAT observed control %” value ([1]; 12.5 ppm)?
Answer: 0%

Question: What about the “SPAT observed control %” value ([1]; 25 ppm) of the same compound?
Answer: 0%

Question: What about the “SPAT observed control %” value ([1]; 50 ppm) of the same compound?
Answer: 0%

Question: What about the “SPAT observed control %” value ([1]; 100 ppm) of the same compound?
Answer: 0%

Question: And the “SPAT observed control %” value ([1]; 200 ppm)?
Answer: 60%

Question: What about the “SPAT observed control %” value ([2]; 1.56 ppm) of the same compound?
Answer: 0%

Question: What about the “SPAT observed control %” value ([2]; 3.125 ppm) of the same compound?
Answer: 0%

Question: What about the “SPAT observed control %” value ([2]; 12.5 ppm) of the same compound?
Answer: 65%

Question: What about the “SPAT observed control %” value ([2]; 25 ppm) of the same compound?
Answer: 80%

Question: What about the “SPAT observed control %” value ([2]; 50 ppm) of the same compound?
Answer: 85%

Question: And the “SPAT observed control %” value ([2]; 100 ppm)?
Answer: 85%

Question: What about the “SPAT observed control %” value ([2]; 200 ppm) of the same compound?
Answer: 85%

Question: Which results are given for `N#Cc1cc(C2=NOC(c3cc(Cl)cc(Cl)c3)(C(F)(F)F)C2)ccc1-n1cncn1` (racemic) [1-1]?
Answer: 1-1 observed control % ([1]; 0.78 ppm): 0%; 1-1 observed control % ([1]; 1.56 ppm): 0%; 1-1 observed control % ([1]; 3.125 ppm): 45%; 1-1 observed control % ([1]; 6.25 ppm): 85%; 1-1 observed control % ([1]; 12.5 ppm): 85%; 1-1 observed control % ([1]; 25 ppm): 90%

Question: With `CC1(C)[C@H](C(=O)O[C@H](C#N)c2cccc(Oc3ccccc3)c2)[C@@H]1C=C(Br)Br` [DMET, deltamethrin] as the compound, how does the “DMET observed control %” value ([1]; 0.0125 ppm) read?
Answer: 0%

Question: And the “DMET observed control %” value ([1]; 0.025 ppm)?
Answer: 0%

Question: What about the “DMET observed control %” value ([1]; 0.05 ppm) of the same compound?
Answer: 0%

Question: And the “DMET observed control %” value ([1]; 0.1 ppm)?
Answer: 0%

Question: What about the “DMET observed control %” value ([1]; 0.2 ppm) of the same compound?
Answer: 0%

Question: What about the “DMET observed control %” value ([1]; 0.4 ppm) of the same compound?
Answer: 0%

Question: What about the “DMET observed control %” value ([1]; 0.8 ppm) of the same compound?
Answer: 0%
